# Test results: ChEMBL document CHEMBL3774336, “Identification of spirooxindole and dibenzoxazepine motifs as potent mineralocorticoid receptor antagonists” (Bioorg Med Chem, 2016)
# How the values were obtained:
# [1] = Half life of compound in rat liver microsomes; type: ADME
# [2] = molecular target: T1, Progesterone receptor (Homo sapiens) (UniProt P06401); experiment: Inhibition of GST-tagged human progesterone receptor LBD domain expressed in insect cells at 10 uM by Gal4-based fluorescence polarization assay
# T1 sequence (whole entry): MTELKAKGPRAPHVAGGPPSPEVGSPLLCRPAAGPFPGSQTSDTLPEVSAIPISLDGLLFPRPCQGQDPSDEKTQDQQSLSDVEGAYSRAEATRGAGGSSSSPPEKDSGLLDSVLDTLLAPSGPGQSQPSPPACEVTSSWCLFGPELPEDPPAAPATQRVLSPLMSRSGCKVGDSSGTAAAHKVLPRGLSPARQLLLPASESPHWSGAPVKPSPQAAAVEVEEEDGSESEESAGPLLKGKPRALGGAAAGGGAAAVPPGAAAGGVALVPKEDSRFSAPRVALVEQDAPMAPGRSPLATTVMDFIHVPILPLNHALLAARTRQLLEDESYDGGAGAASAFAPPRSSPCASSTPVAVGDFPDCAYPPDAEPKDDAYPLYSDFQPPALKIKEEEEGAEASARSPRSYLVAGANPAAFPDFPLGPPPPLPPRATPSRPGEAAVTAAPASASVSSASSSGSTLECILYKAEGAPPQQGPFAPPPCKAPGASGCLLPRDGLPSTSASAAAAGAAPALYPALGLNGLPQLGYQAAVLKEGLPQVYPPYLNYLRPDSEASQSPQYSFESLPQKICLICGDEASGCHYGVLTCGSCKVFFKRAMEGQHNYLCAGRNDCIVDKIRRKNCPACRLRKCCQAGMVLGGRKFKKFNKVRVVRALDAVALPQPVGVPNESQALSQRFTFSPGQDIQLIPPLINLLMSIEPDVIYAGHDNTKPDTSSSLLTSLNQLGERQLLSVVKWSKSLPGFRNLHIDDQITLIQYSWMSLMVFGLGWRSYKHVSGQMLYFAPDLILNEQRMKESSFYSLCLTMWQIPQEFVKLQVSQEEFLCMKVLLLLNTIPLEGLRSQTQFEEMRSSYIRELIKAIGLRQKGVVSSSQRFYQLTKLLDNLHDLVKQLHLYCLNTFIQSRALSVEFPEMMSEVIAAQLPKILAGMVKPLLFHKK
# [3] = molecular target: T2, Estrogen receptor (Homo sapiens) (UniProt P03372); experiment: Inhibition of estrogen receptor (unknown origin) at 10 uM by Gal4-based luciferase assay
# T2 sequence (whole entry): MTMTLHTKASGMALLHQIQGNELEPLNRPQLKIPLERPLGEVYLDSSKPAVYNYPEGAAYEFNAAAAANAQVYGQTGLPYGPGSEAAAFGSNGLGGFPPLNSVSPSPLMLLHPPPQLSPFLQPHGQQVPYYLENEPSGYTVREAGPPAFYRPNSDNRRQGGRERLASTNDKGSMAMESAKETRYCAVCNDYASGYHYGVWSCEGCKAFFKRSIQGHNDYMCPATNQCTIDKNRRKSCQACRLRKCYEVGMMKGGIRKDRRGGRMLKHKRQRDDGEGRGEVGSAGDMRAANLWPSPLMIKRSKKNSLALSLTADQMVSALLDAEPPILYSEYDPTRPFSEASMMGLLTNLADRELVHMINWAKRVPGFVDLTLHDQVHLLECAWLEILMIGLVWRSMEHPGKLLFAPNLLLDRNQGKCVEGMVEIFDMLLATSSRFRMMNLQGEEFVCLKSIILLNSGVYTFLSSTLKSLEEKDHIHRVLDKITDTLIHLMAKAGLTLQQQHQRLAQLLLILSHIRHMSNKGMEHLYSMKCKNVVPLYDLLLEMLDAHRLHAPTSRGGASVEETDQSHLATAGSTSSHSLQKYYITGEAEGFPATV
# Cytochrome P450 3A4 = Cytochrome P450 3A4 (Homo sapiens, UniProt P08684)
# Description: Inhibition of CYP3A4 (unknown origin)
# Cytochrome P450 2D6 = Cytochrome P450 2D6 (Homo sapiens, UniProt P10635); experiment: Inhibition of CYP2D6 (unknown origin); type: ADME
# Cytochrome P450 2C9 = Cytochrome P450 2C9 (Homo sapiens, UniProt P11712); experiment: Inhibition of CYP2C9 (unknown origin); type: ADME
# [4] = molecular target: Mineralocorticoid receptor (Homo sapiens, UniProt P08235, C808S); experiment: (§1) Agonist activity against 6xHis-MBP-fused human MR LBD domain (732 to 984 amino acid residues) C808S mutant expressed in Escherichia coli BL21(DE3) assessed as receptor activation after 16 hrs by luciferase assay
# [5] = test system: T3, Mineralocorticoid receptor (Homo sapiens), P08235 [C808S]; experiment: as §1
# T3 sequence (whole entry): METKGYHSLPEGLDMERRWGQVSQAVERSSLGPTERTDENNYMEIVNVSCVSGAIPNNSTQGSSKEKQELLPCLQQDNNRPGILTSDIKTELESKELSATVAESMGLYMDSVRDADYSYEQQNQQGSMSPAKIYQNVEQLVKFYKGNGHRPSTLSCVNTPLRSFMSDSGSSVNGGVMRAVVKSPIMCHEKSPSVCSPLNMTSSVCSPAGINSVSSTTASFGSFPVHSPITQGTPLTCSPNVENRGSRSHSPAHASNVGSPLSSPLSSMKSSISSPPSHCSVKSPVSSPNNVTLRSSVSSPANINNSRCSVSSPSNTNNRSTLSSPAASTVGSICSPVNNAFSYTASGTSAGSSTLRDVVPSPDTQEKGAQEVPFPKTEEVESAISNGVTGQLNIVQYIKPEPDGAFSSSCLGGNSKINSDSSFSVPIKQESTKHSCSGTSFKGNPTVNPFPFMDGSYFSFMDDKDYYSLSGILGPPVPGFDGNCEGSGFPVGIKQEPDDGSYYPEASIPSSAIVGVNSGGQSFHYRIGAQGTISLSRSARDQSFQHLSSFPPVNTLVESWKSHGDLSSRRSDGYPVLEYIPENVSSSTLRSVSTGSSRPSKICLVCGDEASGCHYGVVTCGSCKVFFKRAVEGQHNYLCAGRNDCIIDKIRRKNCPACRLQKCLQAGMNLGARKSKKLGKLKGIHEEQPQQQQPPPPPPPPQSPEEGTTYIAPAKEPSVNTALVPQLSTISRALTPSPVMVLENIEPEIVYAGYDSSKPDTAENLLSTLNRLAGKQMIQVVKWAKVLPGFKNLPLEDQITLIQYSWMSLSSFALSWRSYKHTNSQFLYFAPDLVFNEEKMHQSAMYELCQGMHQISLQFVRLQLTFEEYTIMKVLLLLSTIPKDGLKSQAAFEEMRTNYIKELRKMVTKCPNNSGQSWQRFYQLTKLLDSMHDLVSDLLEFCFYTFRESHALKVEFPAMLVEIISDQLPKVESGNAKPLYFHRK
# Chain of Cytochrome P450 2D6 (P10635 whole entry): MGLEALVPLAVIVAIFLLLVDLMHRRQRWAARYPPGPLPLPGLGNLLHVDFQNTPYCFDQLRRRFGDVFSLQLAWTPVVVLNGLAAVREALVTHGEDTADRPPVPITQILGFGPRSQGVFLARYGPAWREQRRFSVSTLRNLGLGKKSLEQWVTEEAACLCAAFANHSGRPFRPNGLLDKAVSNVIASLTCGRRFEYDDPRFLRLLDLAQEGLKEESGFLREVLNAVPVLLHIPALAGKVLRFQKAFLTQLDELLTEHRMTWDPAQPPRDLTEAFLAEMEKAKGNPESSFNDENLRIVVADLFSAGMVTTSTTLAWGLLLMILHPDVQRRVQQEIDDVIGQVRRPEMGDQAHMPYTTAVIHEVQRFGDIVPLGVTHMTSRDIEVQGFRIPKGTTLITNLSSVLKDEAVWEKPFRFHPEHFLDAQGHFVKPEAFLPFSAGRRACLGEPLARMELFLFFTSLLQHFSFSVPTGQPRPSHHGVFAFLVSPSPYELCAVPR
# Chain of Cytochrome P450 3A4 (P08684 whole entry): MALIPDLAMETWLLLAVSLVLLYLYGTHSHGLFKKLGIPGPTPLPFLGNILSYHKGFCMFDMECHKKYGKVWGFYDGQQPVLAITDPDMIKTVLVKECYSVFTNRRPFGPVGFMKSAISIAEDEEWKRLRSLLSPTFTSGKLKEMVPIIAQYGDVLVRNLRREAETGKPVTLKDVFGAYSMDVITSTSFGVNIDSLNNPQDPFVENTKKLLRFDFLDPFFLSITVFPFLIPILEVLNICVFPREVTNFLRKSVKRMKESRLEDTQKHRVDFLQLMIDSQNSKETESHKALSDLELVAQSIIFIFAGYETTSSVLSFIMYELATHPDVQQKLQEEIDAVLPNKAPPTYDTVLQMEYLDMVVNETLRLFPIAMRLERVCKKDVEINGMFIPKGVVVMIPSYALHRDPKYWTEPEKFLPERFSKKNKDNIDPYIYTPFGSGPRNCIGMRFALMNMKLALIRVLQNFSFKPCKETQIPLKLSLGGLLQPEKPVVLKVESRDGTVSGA
# Chain of Cytochrome P450 2C9 (P11712 whole entry, the tested form may be a part): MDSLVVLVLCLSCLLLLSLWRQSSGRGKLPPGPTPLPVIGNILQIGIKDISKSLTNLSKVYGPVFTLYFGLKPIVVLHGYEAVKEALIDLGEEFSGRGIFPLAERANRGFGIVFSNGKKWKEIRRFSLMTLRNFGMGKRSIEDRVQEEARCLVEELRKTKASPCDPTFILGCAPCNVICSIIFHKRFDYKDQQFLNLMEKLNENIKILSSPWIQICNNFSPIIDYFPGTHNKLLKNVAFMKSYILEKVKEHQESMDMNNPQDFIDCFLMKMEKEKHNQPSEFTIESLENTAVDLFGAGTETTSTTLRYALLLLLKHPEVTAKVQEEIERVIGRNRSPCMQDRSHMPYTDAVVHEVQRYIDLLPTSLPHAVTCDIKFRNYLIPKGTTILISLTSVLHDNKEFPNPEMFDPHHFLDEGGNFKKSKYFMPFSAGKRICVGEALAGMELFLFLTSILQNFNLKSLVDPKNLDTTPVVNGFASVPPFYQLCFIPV
EC50 [4] [nM],Activity [5] [%],SMILES,half-life [1] [min],inhibition [2] [%],inhibition [3] [%],IC50 (Cytochrome P450 3A4) [µM],IC50 (Cytochrome P450 2D6) [µM],IC50 (Cytochrome P450 2C9) [nM]
–,–,CN1CCC2(CC1)C(=O)Nc1cc(/C=C3\c4ccccc4COc4cc(F)ccc43)ccc12,31,< 40,< 40,7.04,7.62,2830
4,31,O=C1COc2ccc(/C=C3\c4ccccc4COc4cc(F)ccc43)cc2N1,–,98,–,–,–,–
